Source: ChEMBL document CHEMBL2331222, “Discovery of novel inhibitors of signal transducer and activator of transcription 3 (STAT3) signaling pathway by virtual screening” (Eur J Med Chem, 2013)
The source made the active and inactive calls. No cut-off for these calls is given here.

Legend:
[1] = target: T1, Signal transducer and activator of transcription 3 (Homo sapiens, UniProt P40763); test: Inhibition of STAT3 in IL-6-stimulated human HepG2 cells at 10 uM treated for 1 hr prior to IL-6 challenge measured after 5.5 hrs by luciferase reporter gene assay; assay type: cell-based
MDA-MB-468 [2] = test: Cytotoxicity against human MDA-MB-468 cells harboring constitutively harboring activated STAT3 assessed as inhibition of cell viability at 10 uM after 72 hrs by MTT assay; assay type: functional; conditions: MDA-MB-468, 72 h
[3] = target: T1, Signal transducer and activator of transcription 3; test: Inhibition of STAT3 phosphorylation at Tyr705 in IL-6 stimulated human HepG2 cells treated for 6 hrs before IL-6 stimulation measured after 15 mins by Western blot analysis; assay type: cell-based
MDA-MB-468 [4] = test: Cytotoxicity against human MDA-MB-468 cells harboring constitutively harboring activated STAT3 assessed as inhibition of cell viability after 72 hrs by MTT assay; assay type: functional, cell-based; conditions: MDA-MB-468, 72 h
[5] = target: T1, Signal transducer and activator of transcription 3; test: Inhibition of STAT3 in IL-6-stimulated human HepG2 cells treated for 1 hr prior to IL-6 challenge measured after 5.5 hrs by luciferase reporter gene assay; assay type: cell-based
HepG2 [6] = test: Effect on JAK2 level in IL-6 stimulated human HepG2 cells at 50 uM treated for 6 hrs before IL-6 stimulation measured after 15 mins by Western blot analysis; assay type: functional, cell-based
[7] = target: Tyrosine-protein kinase JAK2 (Homo sapiens) (UniProt O60674); test: Effect on JAK2 phosphorylation in IL-6 stimulated human HepG2 cells at 50 uM treated for 6 hrs before IL-6 stimulation measured after 15 mins by Western blot analysis; assay type: cell-based
[8] = target: T1, Signal transducer and activator of transcription 3; test: Inhibition of STAT3 phosphorylation at Tyr705 in IL-6 stimulated human HepG2 cells at 50 uM treated for 6 hrs before IL-6 stimulation measured after 15 mins by Western blot analysis; assay type: cell-based
HepG2 [9] = test: Effect on STAT3 level in IL-6 stimulated human HepG2 cells at 50 uM treated for 6 hrs before IL-6 stimulation measured after 15 mins by Western blot analysis; assay type: functional, cell-based
[10] = target: T2, Signal transducer and activator of transcription 1-alpha/beta (Homo sapiens) (UniProt P42224); test: Inhibition of IFN-gamma-stimulated STAT1 (unknown origin) activity at 10 uM
T2 sequence (whole entry): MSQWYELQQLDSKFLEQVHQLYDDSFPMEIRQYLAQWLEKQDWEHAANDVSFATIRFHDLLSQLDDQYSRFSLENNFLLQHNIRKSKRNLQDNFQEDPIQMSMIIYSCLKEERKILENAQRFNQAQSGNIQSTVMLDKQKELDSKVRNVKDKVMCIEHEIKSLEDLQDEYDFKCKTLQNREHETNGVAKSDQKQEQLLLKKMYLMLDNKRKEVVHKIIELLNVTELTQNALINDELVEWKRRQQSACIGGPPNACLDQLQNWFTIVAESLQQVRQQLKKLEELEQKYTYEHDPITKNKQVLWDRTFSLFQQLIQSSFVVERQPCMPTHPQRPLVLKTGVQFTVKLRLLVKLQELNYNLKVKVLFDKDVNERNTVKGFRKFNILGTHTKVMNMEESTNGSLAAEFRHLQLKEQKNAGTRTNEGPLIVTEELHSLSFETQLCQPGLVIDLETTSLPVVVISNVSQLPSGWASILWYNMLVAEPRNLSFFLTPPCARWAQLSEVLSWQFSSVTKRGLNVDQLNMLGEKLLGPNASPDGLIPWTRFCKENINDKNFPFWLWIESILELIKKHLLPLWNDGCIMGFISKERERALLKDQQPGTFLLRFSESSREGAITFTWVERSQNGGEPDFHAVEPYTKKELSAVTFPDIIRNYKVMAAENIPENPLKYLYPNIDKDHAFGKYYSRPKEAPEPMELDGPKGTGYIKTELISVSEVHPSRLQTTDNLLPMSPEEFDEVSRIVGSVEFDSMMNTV

Homo sapiens = organism: Homo sapiens; test: Inhibition of TNF-alpha-stimulated NF-kappaB (unknown origin) activity at 10 uM

T1 sequence (P40763 whole entry): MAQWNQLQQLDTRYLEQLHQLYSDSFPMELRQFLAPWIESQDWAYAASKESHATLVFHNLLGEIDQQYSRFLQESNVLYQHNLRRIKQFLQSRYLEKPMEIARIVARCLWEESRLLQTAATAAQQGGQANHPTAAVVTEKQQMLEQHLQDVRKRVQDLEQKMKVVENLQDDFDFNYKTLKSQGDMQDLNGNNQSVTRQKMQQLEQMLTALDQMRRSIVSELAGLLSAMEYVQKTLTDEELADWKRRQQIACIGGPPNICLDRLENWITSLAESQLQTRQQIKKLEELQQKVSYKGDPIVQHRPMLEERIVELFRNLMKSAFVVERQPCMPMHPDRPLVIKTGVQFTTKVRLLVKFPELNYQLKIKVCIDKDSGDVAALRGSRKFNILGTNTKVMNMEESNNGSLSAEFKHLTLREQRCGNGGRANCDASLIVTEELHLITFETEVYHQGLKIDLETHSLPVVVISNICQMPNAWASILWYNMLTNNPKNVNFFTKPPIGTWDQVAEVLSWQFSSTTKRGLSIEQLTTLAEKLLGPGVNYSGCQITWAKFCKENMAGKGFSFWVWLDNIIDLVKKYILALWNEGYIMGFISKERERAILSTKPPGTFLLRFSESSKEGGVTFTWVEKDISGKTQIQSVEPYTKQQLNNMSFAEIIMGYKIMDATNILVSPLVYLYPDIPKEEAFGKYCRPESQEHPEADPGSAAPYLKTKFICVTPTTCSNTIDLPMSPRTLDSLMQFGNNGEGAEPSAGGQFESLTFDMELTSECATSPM
Sequence of Tyrosine-protein kinase JAK2 (Homo sapiens) (O60674 whole entry): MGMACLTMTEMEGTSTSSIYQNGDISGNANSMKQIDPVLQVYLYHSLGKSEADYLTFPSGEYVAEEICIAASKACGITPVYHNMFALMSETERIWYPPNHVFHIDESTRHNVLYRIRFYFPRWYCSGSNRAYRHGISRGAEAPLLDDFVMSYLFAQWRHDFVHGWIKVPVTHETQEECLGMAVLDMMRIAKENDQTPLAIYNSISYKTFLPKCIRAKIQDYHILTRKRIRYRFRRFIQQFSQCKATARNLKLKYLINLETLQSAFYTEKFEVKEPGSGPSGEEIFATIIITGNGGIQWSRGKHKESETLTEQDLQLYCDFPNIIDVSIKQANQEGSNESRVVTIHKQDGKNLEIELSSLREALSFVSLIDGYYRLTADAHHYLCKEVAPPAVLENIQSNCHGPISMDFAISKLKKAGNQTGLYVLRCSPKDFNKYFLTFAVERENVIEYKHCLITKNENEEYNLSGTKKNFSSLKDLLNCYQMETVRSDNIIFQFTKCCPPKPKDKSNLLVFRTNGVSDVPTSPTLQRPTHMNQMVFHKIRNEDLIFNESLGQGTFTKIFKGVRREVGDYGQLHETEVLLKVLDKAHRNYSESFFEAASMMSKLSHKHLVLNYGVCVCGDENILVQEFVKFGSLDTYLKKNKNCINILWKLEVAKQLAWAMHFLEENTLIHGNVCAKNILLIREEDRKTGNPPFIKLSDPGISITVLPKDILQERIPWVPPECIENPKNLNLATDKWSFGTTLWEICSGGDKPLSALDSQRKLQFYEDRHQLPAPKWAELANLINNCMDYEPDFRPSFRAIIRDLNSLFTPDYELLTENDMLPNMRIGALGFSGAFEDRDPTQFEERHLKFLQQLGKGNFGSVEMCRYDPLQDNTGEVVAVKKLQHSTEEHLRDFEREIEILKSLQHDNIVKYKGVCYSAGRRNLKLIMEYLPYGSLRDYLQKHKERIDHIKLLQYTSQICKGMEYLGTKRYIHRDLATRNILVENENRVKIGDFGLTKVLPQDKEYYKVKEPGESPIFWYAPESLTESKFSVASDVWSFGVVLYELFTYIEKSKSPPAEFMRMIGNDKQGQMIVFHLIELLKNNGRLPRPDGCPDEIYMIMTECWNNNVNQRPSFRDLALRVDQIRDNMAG

| inhibition [1] | Compound | inhibition at 10 µM (MDA-MB-468 [2]) | also measured |
| --- | --- | --- | --- |
| -5.71% | CCc1cccc(CC)c1NC(=O)CSc1nc2ccc(NC(=O)c3ccc([N+](=O)[O-])cc3)cc2s1 | 6.13% | – |
| -5.89% | COc1ccc(C(=O)Nc2ccc3nc(SCC(=O)Nc4c(C)cccc4C)sc3c2)cc1 | 5.01% | – |
| 21.5% | COc1ccccc1C(=O)Nc1ccc2nc(SCC(=O)Nc3c(C)cccc3C)sc2c1 | 39% | – |
| 25.8% | CCCC(C)Oc1ccc(C(=O)Nc2ccc3nc(SCC(=O)Nc4c(CC)cccc4CC)sc3c2)cc1 (centres undefined) | 34.9% | – |
| 25.8% | CCc1cccc(CC)c1NC(=O)CSc1nc2ccc(NC(=O)c3ccccc3OC)cc2s1 | 23.9% | – |
| -0.31% | COc1ccc(C(=O)Nc2ccc3nc(SCC(=O)N[C@H](C)c4ccccc4)sc3c2)cc1 | -56.8% | – |
| 22.6% | CCc1cccc(CC)c1NC(=O)CSc1nc2ccc(NC(=O)c3ccc(OCc4ccccc4)cc3)cc2s1 | 44.6% | – |
| 39.1% | CCc1cccc(CC)c1NC(=O)CSc1nc2ccc(NC(=O)c3ccncc3)cc2s1 | 12.6% | – |
| 49.5% | CCCCOc1ccc(C(=O)Nc2ccc3nc(SCC(=O)Nc4c(CC)cccc4CC)sc3c2)cc1 | – | – |
| 43% | COc1ccc(C(=O)Nc2ccc3nc(SCC(=O)N[C@@H](C)c4ccccc4)sc3c2)cc1 | -44.7% | – |
| 14.4% | CCc1cccc(CC)c1NC(=O)CSc1nc2ccc(NC(=O)c3cccnc3)cc2s1 | 8.23% | – |

Continued, molecule first:

| Compound | inhibition [1] | inhibition at 10 µM (MDA-MB-468 [2]) | also measured |
| --- | --- | --- | --- |
| COc1ccc(C(=O)Nc2ccc3nc(SCC(=O)NCc4ccc([N+](=O)[O-])cc4)sc3c2)cc1 | 23.8% | -20.4% | – |
| COc1cc(/C=C/C(=O)CC(=O)/C=C/c2ccc(O)c(OC)c2)ccc1O [CURCUMIN] | 30.7% | 3.88% | inhibition [3]: Dose-dependent effect; IC50 (MDA-MB-468 [4]): 196 µM; IC50 [5]: 19.2 µM |
| COc1ccc(C(=O)Nc2ccc3nc(SCC(=O)Nc4ccc(F)c(Cl)c4)sc3c2)cc1 | – | 2.47% | – |
| CCCCOc1ccc(C(=O)Nc2ccc3nc(SCC(=O)N[C@@H](C)c4ccccc4)sc3c2)cc1 | 30.9% | 57.2% | – |
| COc1ccc(NCc2nnc(SCC(=O)Nc3cccc4ccccc34)n2-c2ccc(OC)cc2)cc1 | 24% | – | – |
| CCCCCOc1ccc(C(=O)Nc2ccc3nc(SCC(=O)N[C@@H](C)c4ccccc4)sc3c2)cc1 | 30.7% | 61.1% | – |
| CCc1cccc(CC)c1NC(=O)CSc1nc2ccc(NC(=O)Cc3ccccc3OC)cc2s1 | – | -12.3% | – |
| C[C@H](NC(=O)CSc1nc2ccc(NC(=O)c3ccc(OCc4ccccc4)cc3)cc2s1)c1ccccc1 | 11.5% | 3.02% | – |
| COc1ccc(C(=O)Nc2ccc3nc(SCC(=O)NCc4ccc(F)cc4)sc3c2)cc1 | – | 5.48% | – |
| CCC(=O)Nc1ccc2nc(SCC(=O)Nc3c(CC)cccc3CC)sc2c1 | 2.36% | -12% | – |
| CCCCCOc1ccc(C(=O)Nc2ccc3nc(SCC(=O)Nc4c(CC)cccc4CC)sc3c2)cc1 | 18.9% | 24.1% | – |
| CCc1cccc(CC)c1NC(=O)CSc1nc2ccc(NC(=O)C3CC3)cc2s1 | -9.23% | 32.4% | – |
| CCCC(C)Oc1ccc(C(=O)Nc2ccc3nc(SCC(=O)N[C@@H](C)c4ccccc4)sc3c2)cc1 (some centres undefined) | 51.1% | 51.4% | Activity (HepG2 [6]): inactive; IC50 (MDA-MB-468 [4]): 16.1 µM; Activity [7]: inactive; inhibition [8]: Active; Activity (HepG2 [9]): inactive |
| CCCCOc1ccc(C(=O)Nc2ccc3nc(SC(C)C(=O)Nc4c(C)cc(C)cc4C)sc3c2)cc1 (centres undefined) | 21.5% | – | – |
| CCC(Sc1nc2ccc(NC(=O)c3ccc(OC)cc3)cc2s1)C(=O)Nc1ccc(Br)cc1 (centres undefined) | 34.8% | 66.4% | Activity (HepG2 [6]): inactive; inhibition [10]: 6.17%; IC50 (MDA-MB-468 [4]): 8.83 µM; Activity [7]: inactive; inhibition [8]: Active; Activity (HepG2 [9]): inactive |
| CCc1cccc(CC)c1NC(=O)CSc1nc2ccc(NC(=O)C(C)C)cc2s1 | -8.31% | -17.4% | – |
| COc1ccc(C(=O)Nc2ccc(C(=O)OCC(=O)c3cccc([N+](=O)[O-])c3)cc2)cc1OC | 38.5% | – | inhibition (Homo sapiens): -4.32%; inhibition [10]: 13.8% |
| O=C(CSc1nc2ccc(NC(=O)c3ccccc3)cc2s1)Nc1ccc(F)c(Cl)c1 | – | 9.04% | – |
| CCc1cccc(CC)c1NC(=O)CSc1nc2ccc(NC(=O)C(C)Cl)cc2s1 (centres undefined) | -7.98% | -4.54% | – |
| CCc1cccc(CC)c1NC(=O)CSc1nc2ccc(NC(=O)c3ccc(OC)cc3)cc2s1 | – | -0.77% | – |
